Experimental data published in patent publication US20170275270A1, “BENZYL SUBSTITUTED INDAZOLES” (Bayer Pharma Aktiengesellschaft, priority 2014, published 2017).
Where a name gives a salt, the structure may show the parent alone. Read-outs that look alike come from different tables or passages of the source.

Tests used:
Bub1 = Bub1 (Homo sapiens, UniProt O43683); assay: Formation-Assay: phosphorylation status of histone 2A by inhibition of kinase activity of Bub1; type: cell-based; conditions: Biological Assay 4.1: H2A Formation IC50, co-treatment with Nocodazole 1 μg/ml, 16 h
Procedure: Biological Assay 4.1: Formation-Assay
Cell-Based Mechanistic Assay: Changes of Phosphorylation Status of Histone 2A by Inhibition of Kinase Activity of Bub1
This assay determines the suppression of histone 2A phosphorylation by a Bub1 kinase inhibitor during co-treatment with Nocodazole. 25000 cells (cells were ordered from ATCC) were seeded in 96 well plate for 5 h at 37° C. Cells were treated with Nocodazole (1 μg/ml) and varying concentrations (between 3 nM and 10 μM) of test compounds for 16 h. Cells were fixed (20 min, Fixing solution R&D), washed three times with PBS and blocked with Odyssey blocking buffer before incubating with the primary antibody against phosphorylated H2A (5 μg/ml ABIN482721) overnight at 2-8° C. After washing, secondary IRDye-labeled antibody mix with cell stains was added for 1 h and washed again with PBS. Plates were scanned with LiCor Odyssey Infrared Imager CLx at 800 nm for P-H2A and at 700 nm for cell stains Draq5/Sapphire. The quotient of 800 nm and 700 nm for Nocodazole only treated cells was set as 100% and the quotient of 800 nm and 700 nm of untreated cells was set as 0%.
Histone H2A is an immediate intracellular substrate of Bub1 kinase. Determination of the phosphorylation status of Histone H2A provides a direct measure of the intracellular activity of Bub1 kinase.

[1] = biological target: T1, catalytic domain of human Bub1 (amino acids 704-1085) (Homo sapiens, UniProt O43683); assay: Bub1 kinase assay (TR-FRET); type: biochemical
T1 construct: catalytic domain of human Bub1 (amino acids 704-1085); His6 (N); made in house; host or cells: Hi5 insect cells
Procedure, shortened: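 TR-FRET read-out (Eu-anti-mouse IgG/anti-phosphoserine antibody to streptavidin-XL665 on biotinylated peptide) after EDTA stop and 1 h complex formation at 22° C. Kinase reaction ran 60 min at 22° C with 1:3.4 serial dilutions from 2 mM DMSO stocks. IC50 from 4-parameter logistic fit of normalized inhibition.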

HeLa = assay: Proliferation assay (HeLa cell line); conditions: Homo sapiens, 96 h, read-out: Biological Assay 2: Proliferation assay (HeLa cell line) median IC50;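 further: crystal violet staining of cell number, scaled between a plate stained before dosing (0%) and cells left untreated (100%), compounds tested at 0.001-10 µM, IC50 via 4-parameter fit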
Procedure: Cultivated tumor cells (cells were ordered from ATCC, except HeLa-MaTu and HeLa-MaTu-ADR, which were ordered from EPO-GmbH, Berlin) were plated at a density of 1000 to 5000 cells/well, depending on the growth rate of the respective cell line, in a 96-well multititer plate in 200 μL of their respective growth medium supplemented 10% fetal calf serum. After 24 hours, the cells of one plate (zero-point plate) were stained with crystal violet (see below), while the medium of the other plates was replaced by fresh culture medium (200 μL), to which the test substances were added in various concentrations (0 μM, as well as in the range of 0.001-10 μM; the final concentration of the solvent dimethyl sulfoxide was 0.5%). The cells were incubated for 4 days in the presence of test substances. Cell proliferation was determined by staining the cells with crystal violet: the cells were fixed by adding 20 μL measuring point of an 11% glutaric aldehyde solution for 15 minutes at room temperature. After three washing cycles of the fixed cells with water, the plates were dried at room temperature. The cells were stained by adding 100 μL/measuring point of a 0.1% crystal violet solution (pH 3.0). After three washing cycles of the stained cells with water, the plates were dried at room temperature. The dye was dissolved by adding 100 μl/measuring point of a 10% acetic acid solution. […] The change of cell number, in percent, was calculated by normalization of the measured values to the absorbtion values of the zero-point plate (=0%) and the absorbtion of the untreated (0 μm) cells (=100%). The IC50 values were determined by means of a 4 parameter fit.

[2] = tested on: HeLa human cervical tumor cells; assay: Proliferation assay (HeLa+Paclitaxel); conditions: read-out: Biological Assay 3: HeLa + Paclitaxel IC50, 3 nM paclitaxel, crystal violet;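 further: compounds at 0.001-10 µM added 4 h after paclitaxel, 92 h exposure, absorbance normalized to zero-point plate (0%) and untreated cells (100%), IC50 from 4-parameter fit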
Procedure: Proliferation Assay (HeLa+Paclitaxel):
Cultivated HeLa human cervical tumor cells (DSMZ ACC-57) were plated at a density of 3000 cells/well in a 96-well multititer plate in 200 μL of growth medium supplemented 10% fetal calf serum. After 24 hours, the cells of one plate (zero-point plate) were stained with crystal violet (see below). The medium of the other plates was supplemented with 3 nM of paclitaxel (Sigma-Aldrich) and the cells were incubated at 37° C. After 4 hours the test substances were added in various concentrations (0 μM, as well as in the range of 0.001-10 μM; the final concentration of the solvent dimethyl sulfoxide was adjusted to 0.1%) using a Hewlett-Packard HP D300 Digital Dispenser. The cells were incubated for another 92 hours at 37° C. in the presence of test substances. Cell proliferation was determined by staining the cells with crystal violet: the cells were fixed by adding 20 μL/measuring point of an 11% glutaric aldehyde solution for 15 minutes at room temperature. After three washing cycles of the fixed cells with water, the plates were dried at room temperature. The cells were stained by adding 100 μL/measuring point of a 0.1% crystal violet solution (pH 3.0). After three washing cycles of the stained cells with water, the plates were dried at room temperature. The dye was dissolved by adding 100 μL/measuring point of a 10% acetic acid solution. […] The change of cell number, in percent, was calculated by normalization of the measured values to the absorbtion values of the zero-point plate (=0%) and the absorbtion of the untreated (0 μm) cells (=100%). The IC50 values were determined by means of a 4 parameter fit.

[3] = Biological Assay 1: Bub1 kinase assay median IC50, 10 μM ATP
[4] = 10 μM ATP, read-out: Biological Assay 1: Bub1 kinase assay median IC50

T1 sequence (O43683 704-1085): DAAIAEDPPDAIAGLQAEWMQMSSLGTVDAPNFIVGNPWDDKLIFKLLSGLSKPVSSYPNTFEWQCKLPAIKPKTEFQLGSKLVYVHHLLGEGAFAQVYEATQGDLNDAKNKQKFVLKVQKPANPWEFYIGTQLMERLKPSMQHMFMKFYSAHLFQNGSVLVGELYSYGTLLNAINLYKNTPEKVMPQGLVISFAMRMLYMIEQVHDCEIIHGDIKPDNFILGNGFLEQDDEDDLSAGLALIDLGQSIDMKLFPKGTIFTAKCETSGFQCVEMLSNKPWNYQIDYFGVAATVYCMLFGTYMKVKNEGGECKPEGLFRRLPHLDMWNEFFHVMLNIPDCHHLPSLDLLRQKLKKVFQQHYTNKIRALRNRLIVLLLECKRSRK
Sequence of Bub1 (O43683 whole entry): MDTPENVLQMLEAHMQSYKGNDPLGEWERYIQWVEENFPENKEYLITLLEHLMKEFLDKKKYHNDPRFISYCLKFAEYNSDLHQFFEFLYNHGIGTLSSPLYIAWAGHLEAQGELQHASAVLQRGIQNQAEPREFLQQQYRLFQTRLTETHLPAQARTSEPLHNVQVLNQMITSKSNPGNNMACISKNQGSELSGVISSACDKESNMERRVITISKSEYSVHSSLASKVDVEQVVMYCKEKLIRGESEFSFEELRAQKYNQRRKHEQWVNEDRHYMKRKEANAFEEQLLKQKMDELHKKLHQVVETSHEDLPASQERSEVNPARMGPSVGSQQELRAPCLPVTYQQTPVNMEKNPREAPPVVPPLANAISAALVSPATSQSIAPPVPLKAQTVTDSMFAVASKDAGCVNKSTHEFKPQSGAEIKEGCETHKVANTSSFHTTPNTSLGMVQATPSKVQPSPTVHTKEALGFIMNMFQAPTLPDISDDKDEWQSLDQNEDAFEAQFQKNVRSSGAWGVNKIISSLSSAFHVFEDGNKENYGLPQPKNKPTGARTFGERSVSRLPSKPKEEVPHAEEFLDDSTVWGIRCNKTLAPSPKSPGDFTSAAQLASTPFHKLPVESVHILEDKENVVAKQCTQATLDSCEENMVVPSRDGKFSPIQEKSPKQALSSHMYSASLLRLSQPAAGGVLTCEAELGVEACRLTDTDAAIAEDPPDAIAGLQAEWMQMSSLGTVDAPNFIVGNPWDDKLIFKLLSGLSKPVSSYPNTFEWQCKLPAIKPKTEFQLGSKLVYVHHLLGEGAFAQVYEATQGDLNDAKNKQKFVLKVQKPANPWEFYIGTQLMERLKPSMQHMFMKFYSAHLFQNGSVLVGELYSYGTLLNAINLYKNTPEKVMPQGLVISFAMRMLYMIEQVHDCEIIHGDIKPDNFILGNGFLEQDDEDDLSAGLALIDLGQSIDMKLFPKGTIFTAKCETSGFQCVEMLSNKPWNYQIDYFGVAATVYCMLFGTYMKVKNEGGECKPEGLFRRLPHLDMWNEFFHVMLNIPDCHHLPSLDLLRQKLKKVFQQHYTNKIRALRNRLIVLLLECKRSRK

| SMILES | IC50 (Bub1) [nM] | IC50 [1, 3] [nM] | IC50 (HeLa) [nM] | IC50 [2] [nM] | IC50 [1, 4] [nM] |
| --- | --- | --- | --- | --- | --- |
| CCOc1cc(F)c(Cn2nc(-c3ncc(C4CCNCC4)c(Nc4ccnc(NC(C)=O)c4)n3)c3ccccc32)c(F)c1 [Example 2-17-2, N-[4-({2-[1-(4-ethoxy-2,6-difluorobenzyl)-1H-indazol-3-yl]-5-(piperidin-4-yl)pyrimidin-4-yl}amino)pyridin-2-yl]acetamide] | 4.8 | 8.6 | 3100 | 190 | – |
| CCOc1cc(F)c(Cn2nc(-c3nc4c(c(Nc5ccnc(NC(C)=O)c5)n3)CSC4)c3ccccc32)c(F)c1 [Example 2-19-3, N-[4-({2-[1-(4-ethoxy-2,6-difluorobenzyl)-1H-indazol-3-yl]-5,7-dihydrothieno[3,4-d]pyrimidin-4-yl}amino)pyridin-2-yl]acetamide] | 340 | 8.9 | 2100 | 610 | – |
| CCOc1cc(F)c(Cn2nc(-c3nc4c(c(Nc5ccncc5)n3)CCC4)c3ccccc32)c(F)c1 [Example 2-12-2, 2-[1-(4-ethoxy-2,6-difluorobenzyl)-1H-indazol-3-yl]-N-(pyridin-4-yl)-6,7-dihydro-5H-cyclopenta[d]pyrimidin-4-amine] | 180 | – | 2100 | 390 | 12 |
| CCOc1cc(F)c(Cn2nc(-c3nc4c(c(Nc5ccncc5C)n3)CCC4)c3ccccc32)c(F)c1 [Example 2-14-2, 2-[1-(4-ethoxy-2,6-difluorobenzyl)-1H-indazol-3-yl]-N-(3-methylpyridin-4-yl)-6,7-dihydro-5H-cyclopenta[d]pyrimidin-4-amine] | 1.6 | – | 1100 | 120 | 8 |
| CCOc1cc(F)c(Cn2nc(-c3nc(C)c(Cl)c(Nc4ccncc4)n3)c3ccccc32)c(F)c1 [Example 2-12-23, 5-chloro-2-[1-(4-ethoxy-2,6-difluorobenzyl)-1H-indazol-3-yl]-6-methyl-N-(pyridin-4-yl)pyrimidin-4-amine] | 10 | – | > 10000 | 380 | 23 |
| CCOc1cc(F)c(Cn2nc(-c3nc(C)c(F)c(Nc4ccncc4)n3)c3ccccc32)c(F)c1 [Example 2-12-5, 2-[1-(4-ethoxy-2,6-difluorobenzyl)-1H-indazol-3-yl]-5-fluoro-6-methyl-N-(pyridin-4-yl)pyrimidin-4-amine] | 390 | – | 1300 | 920 | 6.5 |
| CCOc1cc(F)c(Cn2nc(-c3nc(CN4CCOCC4)cc(Nc4ccncc4F)n3)c3ccccc32)c(F)c1 [Example 2-19-12, 2-[1-(4-ethoxy-2,6-difluorobenzyl)-1H-indazol-3-yl]-N-(3-fluoropyridin-4-yl)-6-(morpholin-4-ylmethyl)pyrimidin-4-amine] | 63 | – | 4000 | 250 | 11 |
| CCOc1cc(F)c(Cn2nc(-c3nc4c(c(Nc5ccncc5OC)n3)CC(C)(C)CC4)c3ccccc32)c(F)c1 [Example 2-12-67, 2-[1-(4-ethoxy-2,6-difluorobenzyl)-1H-indazol-3-yl]-N-(3-methoxypyridin-4-yl)-6,6-dimethyl-5,6,7,8-tetrahydroquinazolin-4-amine] | 22 | – | 4400 | 150 | 66 |
| COCc1cc(Nc2ccnc(C)c2)nc(-c2nn(Cc3c(F)cc(OCCO)cc3F)c3ccccc23)n1 [Example 2-12-51, 2-{3,5-difluoro-4-[(3-{4-(methoxymethyl)-6-[(2-methylpyridin-4-yl)amino]pyrimidin-2-yl}-1H-indazol-1-yl)methyl]phenoxy}eth-anol] | 570 | 45 | 410 | 340 | – |
| CCOc1cc(F)c(Cn2nc(-c3nc(COC)cc(Nc4ccnc(C)c4)n3)c3ccccc32)c(F)c1 [Example 2-12-48, 2-[1-(4-ethoxy-2,6-difluorobenzyl)-1H-indazol-3-yl]-6-(methoxymethyl)-N-(2-methylpyridin-4-yl)pyrimidin-4-amine] | 1100 | 21 | 1200 | 180 | – |
| CCOc1cc(F)c(Cn2nc(-c3nc(C)c(F)c(Nc4ccnc(C(F)(F)F)c4)n3)c3ccccc32)c(F)c1 [Example 2-12-21, 2-[1-(4-ethoxy-2,6-difluorobenzyl)-1H-indazol-3-yl]-5-fluoro-6-methyl-N-[2-(trifluoromethyl)pyridin-4-yl]pyrimidin-4-amine] | 38 | – | > 10000 | 670 | – |
| CCOc1cc(F)c(Cn2nc(-c3nc(C)cc(Nc4ccncc4C(N)=O)n3)c3ccccc32)c(F)c1 [Example 2-10-2, 4-({2-[1-(4-ethoxy-2,6-difluorobenzyl)-1H-indazol-3-yl]-6-methylpyrimidin-4-yl}amino)pyridine-3-carboxamide] | 140 | – | – | – | 5.5 |
| CCOc1cc(F)c(Cn2nc(-c3nc4c(c(Nc5ccnc(C(F)(F)F)c5)n3)CNCC4)c3ccccc32)c(F)c1 [Example 2-9-17, 2-[1-(4-ethoxy-2,6-difluorobenzyl)-1H-indazol-3-yl]-N-[2-(trifluorometh-yl)pyridin-4-yl]-5,6,7,8-tetrahydro-pyrido[4,3-d]pyr-imidin-4-amine] | 2 | – | 2100 | 130 | – |
| CCOc1cc(F)c(Cn2nc(-c3ncc(CCS(C)(=O)=O)c(Nc4ccncc4)n3)c3ccccc32)c(F)c1 [Example 2-3-1, 2-[1-(4-ethoxy-2,6-difluorobenzyl)-1H-indazol-3-yl]-5-[2-(methylsulfonyl)ethyl]-N-(eparate-4-yl)pyrimidin-4-amine] | 2300 | 6.1 | 3500 | – | – |
| Cc1nccc(Nc2nc(-c3nn(Cc4c(F)cc(OCCO)cc4F)c4ccccc34)ncc2C2CCN(CC(F)F)CC2)n1 [Example 2-6-17, 2-{4-[(3-{5-[1-(2,2-difluoroethyl)piperidin-4-yl]-4-[(2-methylpyrimidin-4-yl)amino]pyrimidin-2-yl}-1H-indazol-1-yl)methyl]-3,5-difluorophenoxy} ethanol] | 6 | 58 | 6800 | – | – |
| CCOc1cc(F)c(Cn2nc(-c3ncc(C4CNC4)c(Nc4ccncc4)n3)c3ccccc32)c(F)c1 [Example 2-9-1, 5-(azetidin-3-yl)-2-[1-(4-ethoxy-2,6-difluorobenzyl)-1H-indazol-3-yl]-N-(pyridin-4-yl)pyrimidin-4-amine, salt with hydrochloric acid] | 17 | – | 1300 | – | 9.4 |
| CCOc1cc(F)c(Cn2nc(-c3ncc(OCC(=O)N4CC(F)(F)C4)c(Nc4ccncc4)n3)c3ccccc32)c(F)c1 [Example 3-5-1, 1-(3,3-difluoroazetidin-1-yl)-2-({2-[1-(4-ethoxy-2,6-difluorobenzyl)-1H-indazol-3-yl]-4-(pyridin-4-ylamino)pyrimidin-5-yl}oxy)ethanone, reference compound] | 360 | 8 | 3900 | – | – |
| CCOc1cc(F)c(Cn2nc(-c3nc(Nc4cc(C)ncc4C)cc(C(F)(F)F)n3)c3ccccc32)c(F)c1 [Example 2-12-82, N-(2,5-dimethylpyridin-4-yl)-2-[1-(4-ethoxy-2,6-difluorobenzyl)-1H-indazol-3-yl]-6-(trifluoromethyl)pyr-imidin-4-amine] | 30 | – | – | – | > 20000 |
| CCOc1cc(F)c(Cn2nc(-c3ncc(C4CCN(CC(F)F)CC4)c(Nc4ccncc4OC)n3)c3ccccc32)c(F)c1 [Example 2-11-5, 5-[1-(2,2-difluoroethyl)piper-idin-4-yl]-2-[1-(4-ethoxy-2,6-difluorobenzyl)-1H-indazol-3-yl]-N-(3-methoxypyridin-4-yl)pyrimidin-4-amine] | 8.3 | 23 | 1700 | – | – |
| CCOc1cc(F)c(Cn2nc(-c3ncc(CCCS(C)(=O)=O)c(Nc4ccncc4)n3)c3ccccc32)c(F)c1 [Example 2-3-2, 2-[1-(4-ethoxy-2,6-difluorobenzyl)-1H-indazol-3-yl]-5-[3-(methylsulfonyl)propyl]-N-(pyridin-4-yl)pyrimidin-4-amine] | 990 | 9 | 2800 | – | – |
| CC(=O)Nc1cc(Nc2nc(-c3nn(Cc4c(F)cc(OCCO)cc4F)c4ccccc34)nc3c2CCC3)ccn1 [Example 2-4-6, N-{4-[(2-{1-[2,6-difluoro-4-(2-hydroxyethoxy)benzyl]-1H-indazol-3-yl}-6,7-dihydro-5H-cyclopenta[d]pyrimidin-4-yl)amino]pyridin-2-yl}acetamide] | 130 | 9.9 | 2100 | – | – |
